The subject of test [1] is PC-12. In words: cells. It is filed as functional. The conditions noted are these: Rattus norvegicus.
The subject of test [2] is PC-12. In words: cells. It is filed as functional. To be noted: Rattus norvegicus. The source holds these as a separate data set.
For another test, the target named is Acetylcholinesterase (Electrophorus electricus, UniProt O42275). It is filed as ADME.
The target of another test is Cholinesterase (Equus caballus, UniProt P81908).
The test system of test [3] is PC-12. In words: cells. The class given is functional. To be noted: Rattus norvegicus. This is another data set of the same source.
Test [4] deals with PC-12. Description: cells. To be noted: Rattus norvegicus. The class given is functional. This is another data set of the same source.
Test [5] concerns PC-12. Description: cells. The class given is functional. To be noted: Rattus norvegicus. The source holds these as a separate data set.

Data on ten compounds can be found in ChEMBL document CHEMBL4350991, “Design, synthesis, and biological evaluation of rutacecarpine derivatives as multitarget-directed ligands for the treatment of Alzheimer's disease” (Eur J Med Chem, 2019).

For orientation: viability means the share of living cells, or the viability signal relative to a control. A higher viability goes with better survival. Usually IC50 stands for the concentration at which inhibition is half-maximal.

Acetylcholinesterase, sequence (O42275 whole entry): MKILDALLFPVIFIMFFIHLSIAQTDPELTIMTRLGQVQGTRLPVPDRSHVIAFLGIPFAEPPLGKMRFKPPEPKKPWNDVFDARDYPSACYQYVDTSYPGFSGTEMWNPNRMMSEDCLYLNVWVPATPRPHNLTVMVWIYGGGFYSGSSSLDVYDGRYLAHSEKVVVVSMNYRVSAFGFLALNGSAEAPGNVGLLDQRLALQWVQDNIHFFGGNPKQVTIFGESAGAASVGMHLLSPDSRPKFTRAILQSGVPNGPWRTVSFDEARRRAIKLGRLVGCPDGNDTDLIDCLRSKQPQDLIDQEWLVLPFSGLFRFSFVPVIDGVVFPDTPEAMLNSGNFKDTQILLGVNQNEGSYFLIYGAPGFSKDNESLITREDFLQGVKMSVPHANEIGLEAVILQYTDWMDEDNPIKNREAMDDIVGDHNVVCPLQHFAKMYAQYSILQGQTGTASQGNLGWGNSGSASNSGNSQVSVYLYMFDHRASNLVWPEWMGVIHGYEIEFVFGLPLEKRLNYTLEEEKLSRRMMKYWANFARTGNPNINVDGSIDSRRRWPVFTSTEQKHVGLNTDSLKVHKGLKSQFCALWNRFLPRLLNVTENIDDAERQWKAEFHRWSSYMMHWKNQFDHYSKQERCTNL
Cholinesterase, sequence (P81908 whole entry): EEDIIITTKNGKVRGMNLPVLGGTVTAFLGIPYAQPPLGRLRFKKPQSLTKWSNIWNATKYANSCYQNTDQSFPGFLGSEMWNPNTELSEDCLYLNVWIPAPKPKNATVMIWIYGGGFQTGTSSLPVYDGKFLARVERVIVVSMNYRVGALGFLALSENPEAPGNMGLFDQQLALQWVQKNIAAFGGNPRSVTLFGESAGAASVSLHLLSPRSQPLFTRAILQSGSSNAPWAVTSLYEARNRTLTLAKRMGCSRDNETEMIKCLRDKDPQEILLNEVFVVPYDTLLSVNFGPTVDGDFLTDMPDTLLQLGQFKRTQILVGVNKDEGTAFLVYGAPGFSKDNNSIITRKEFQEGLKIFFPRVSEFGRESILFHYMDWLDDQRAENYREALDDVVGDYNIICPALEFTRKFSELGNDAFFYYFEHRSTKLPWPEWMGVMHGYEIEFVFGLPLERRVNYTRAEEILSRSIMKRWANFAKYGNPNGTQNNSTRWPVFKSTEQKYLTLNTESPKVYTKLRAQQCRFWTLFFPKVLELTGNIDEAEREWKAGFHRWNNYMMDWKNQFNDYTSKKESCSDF
Description for Acetylcholinesterase: Inhibition of electric eel AChE using acetylthiocholine iodide as substrate preincubated for 30 mins followed by substrate addition and measured after 30 mins by Ellman's method

Compound `O=c1c2cc(NS(=O)(=O)c3cccs3)ccc2nc2n1CCc1c-2[nH]c2ccccc12` displayed a viability at 5 µM in the test on PC-12 [1] of 39.2%. The compound also registered a viability at 10 µM with PC-12 [2] of 40.8%. Also, the IC50 on Acetylcholinesterase and against Cholinesterase was > 100 µM throughout. Moreover, the viability at 1 µM in the test with PC-12 [3] amounted to 37.7%. Further, in the test on PC-12 [4], the viability at 50 µM came out at 42.4%. Further, in the test on PC-12 [5], the viability at 30 µM was found to be 41.9%.
`O=c1c2cc(NS(=O)(=O)c3ccc(Cl)s3)ccc2nc2n1CCc1c-2[nH]c2ccccc12` showed a viability at 5 µM in the test on PC-12 [1] of 48%. In the test on PC-12 [2], the viability at 10 µM was found to be 55.1%. Further, the figures for the IC50 against Acetylcholinesterase and against Cholinesterase were > 100 µM and 76.9 µM, respectively. The compound further yielded a viability at 1 µM in the test on PC-12 [3] of 43.5%. This compound also had a viability at 50 µM in the test on PC-12 [4] of 54.5%. Moreover, in the test on PC-12 [5], the viability at 30 µM was 56%.
In the test on PC-12 [1], `COc1cc2c(cc1OC)C(=O)C(CC1CCN(Cc3ccccc3)CC1)C2` (stereo unspecified) [DONEPEZIL] had a viability at 5 µM of 57.1%. In addition, in the test on PC-12 [2], the viability at 10 µM was 65.5%. Besides, in the test with PC-12 [3], the viability at 1 µM stood at 49.2%. Also, the viability at 50 µM in the test with PC-12 [4] worked out at 76.7%. In addition, the viability at 30 µM in the test with PC-12 [5] stood at 68.9%.
`CC(C)(C)c1ccc(S(=O)(=O)Nc2ccc3nc4n(c(=O)c3c2)CCc2c-4[nH]c3ccccc23)cc1`: the viability at 5 µM in the test with PC-12 [1] was 39.9%. Further, the viability at 10 µM in the test with PC-12 [2] worked out at 41.2%. In addition, the IC50 against Acetylcholinesterase is > 100 µM; against Cholinesterase, 13 µM. In the test on PC-12 [3], this compound showed a viability at 1 µM of 37.6%. The compound also yielded a viability at 50 µM in the test with PC-12 [4] of 43.6%. The compound also showed a viability at 30 µM in the test with PC-12 [5] of 41.7%.
`O=c1c2cc(NS(=O)(=O)c3cccc([N+](=O)[O-])c3)ccc2nc2n1CCc1c-2[nH]c2ccccc12` gave a viability at 5 µM with PC-12 [1] of 38.7%. The same compound came in with a viability at 10 µM in the test with PC-12 [2] of 40.9%. Further, the IC50 was > 100 µM at Acetylcholinesterase and 23.3 µM at Cholinesterase. This compound also came in with a viability at 1 µM with PC-12 [3] of 27%. In addition, the viability at 50 µM with PC-12 [4] amounted to 25.6%. In the test on PC-12 [5], the viability at 30 µM was 34%.
As for `COc1ccc(S(=O)(=O)Nc2ccc3nc4n(c(=O)c3c2)CCc2c-4[nH]c3ccccc23)cc1`, the viability at 5 µM in the test on PC-12 [1] came out at 51.8%. The viability at 10 µM in the test with PC-12 [2] was found to be 42.3%. In addition, the figures for the IC50 against Acetylcholinesterase and against Cholinesterase were > 100 µM and 8.01 µM, respectively. The viability at 1 µM with PC-12 [3] was found to be 39.3%. In the test with PC-12 [4], this compound showed a viability at 50 µM of 49%. Also, in the test on PC-12 [5], the viability at 30 µM stood at 43.2%.
As for `COc1ccc(S(=O)(=O)Nc2ccc3nc4n(c(=O)c3c2)CCc2c-4[nH]c3ccccc23)c(OC)c1`, the viability at 5 µM in the test on PC-12 [1] was 51.1%. Further, in the test with PC-12 [2], the viability at 10 µM amounted to 52%. Moreover, the IC50 at Acetylcholinesterase came to 77 µM; at Cholinesterase, 7.58 µM. The same compound showed a viability at 1 µM in the test with PC-12 [3] of 49.6%. The viability at 50 µM in the test with PC-12 [4] worked out at 51.1%. In the test with PC-12 [5], this compound had a viability at 30 µM of 56%.
`COC(=O)c1sccc1S(=O)(=O)Nc1ccc2nc3n(c(=O)c2c1)CCc1c-3[nH]c2ccccc12` displayed a viability at 5 µM in the test on PC-12 [1] of 42.5%. This compound displayed a viability at 10 µM with PC-12 [2] of 39.9%. Further, the IC50 against Acetylcholinesterase and on Cholinesterase was > 100 µM throughout. This compound returned a viability at 1 µM in the test with PC-12 [3] of 35.9%. The viability at 50 µM in the test with PC-12 [4] came out at 38%. Further, the viability at 30 µM in the test with PC-12 [5] was 39.8%.
In the test on PC-12 [1], `O=c1c2cc(NS(=O)(=O)c3ccc([N+](=O)[O-])cc3)ccc2nc2n1CCc1c-2[nH]c2ccccc12` displayed a viability at 5 µM of 33%. Also, the viability at 10 µM in the test with PC-12 [2] came out at 37.1%. Further, the IC50 is > 100 µM against Acetylcholinesterase and 16.5 µM against Cholinesterase. Also, the viability at 1 µM in the test with PC-12 [3] worked out at 32.4%. The viability at 50 µM with PC-12 [4] was 31%. Moreover, in the test with PC-12 [5], the viability at 30 µM was found to be 33.5%.
For `O=c1c(O)c(-c2ccc(O)c(O)c2)oc2cc(O)cc(O)c12` [QUERCETIN], the viability at 5 µM in the test with PC-12 [1] was 56.3%. Further, in the test on PC-12 [2], the viability at 10 µM was found to be 57.9%. Also, in the test with PC-12 [3], the viability at 1 µM came to 48.9%. Moreover, in the test with PC-12 [4], the viability at 50 µM was 62.7%. The same compound came in with a viability at 30 µM in the test with PC-12 [5] of 60.6%.
